{"source": "patent US20190314379A1", "about": "“METHODS OF USING CANNABINOID CB2 RECEPTOR AGONIST COMPOSITIONS TO SUPPRESS AND PREVENT OPIOID TOLERANCE AND WITHDRAWAL IN A SUBJECT” (Indiana University Research and Technology Corporation, priority 2018, published 2019)", "key": {"human CB2 [1]": {"target": "T1, human CB2 (Homo sapiens, UniProt P34972)", "T1 sequence (P34972 whole entry)": "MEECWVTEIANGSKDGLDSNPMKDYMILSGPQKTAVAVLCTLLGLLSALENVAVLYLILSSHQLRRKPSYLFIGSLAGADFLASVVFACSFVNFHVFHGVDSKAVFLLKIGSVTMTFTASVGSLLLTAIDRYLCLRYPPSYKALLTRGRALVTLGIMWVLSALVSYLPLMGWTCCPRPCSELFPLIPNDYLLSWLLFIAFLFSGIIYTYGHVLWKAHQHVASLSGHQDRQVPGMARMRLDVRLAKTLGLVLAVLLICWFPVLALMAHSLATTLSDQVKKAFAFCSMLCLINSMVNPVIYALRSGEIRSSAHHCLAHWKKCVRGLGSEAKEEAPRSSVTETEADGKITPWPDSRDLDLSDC", "assay": "Phosphorylated ERK1/2 detection, HEK hCB2", "format": "cell-based", "parameters": "expressed in transfected cells", "conditions": "for Emax: read-out: pERK1/2 Emax"}, "[2]": {"system": "paclitaxel-induced mechanical allodynia", "assay": "Paclitaxel-induced mechanical allodynia (electronic von Frey)", "format": "in vivo, mouse", "conditions": "for mechanical allodynia, chronic phase 1 treatment: 3 mg/kg per day i.p.×12 days", "description": "In all studies, the experimenter was blinded to the treatment condition, and mice were randomly assigned to experimental conditions. Paclitaxel (4 mg/kg i.p.) was administered four times on alternate days (cumulative dose, 16 mg/kg i.p.) to induce neuropathic pain as described previously by our group (Deng et al., 2015). Control mice received an equal volume of cremophor-vehicle. Development of paclitaxel-induced allodynia was assessed on day 0, 4, 7, 11, and 14.\nEffects of pharmacologic manipulations were assessed at 30 minutes after drug administration during the maintenance phase of paclitaxel-induced neuropathy (i.e., beginning day 18-20 after initial paclitaxel injection).\nIn experiments 2 and 3, pharmacologic manipulations were performed once daily for 12 consecutive days in each of the two phases of chronic treatment. Four days separated phase 1 and phase 2 chronic dosing in all studies comprising two phases of chronic dosing. Experiments 2 and 3 were performed concurrently using overlapping cohorts that were tested with a single vehicle (phase 1), vehicle (phase 2) group.\nWe then assessed the antiallodynic efficacy of chronic systemic administration of vehicle or morphine (10 mg/kg per day i.p.×12 days) administered during phase 2 in the same animals. Responsiveness to mechanical and cold stimulation was evaluated on treatment days 1, 4, 8, and 12 during phase 1 and on treatment days 16, 19, 23, and 27 during phase 2 (i.e., phase 2 started on day 16).\nIn experiment 4, we evaluated the impact of coadministration of morphine (10 mg/kg i.p.×12 days) with a submaximal dose of LY 2828360 (0.1 mg/kg per day i.p.×12 days) in WT and CB2 KO mice.\nPaw withdrawal thresholds (grams) to mechanical stimulation were measured in duplicate for each paw using an electronic von Frey anesthesiometer supplied with a 90-g probe (model Alemo 2390-5; IITC, Woodland Hills, Calif.) as described previously. Mice were placed on an elevated metal mesh table and allowed to habituate under individual, inverted plastic cages to the testing platform for at least 20 minutes until exploratory behavior had ceased. Alter the habituation period, a force was applied to the midplantar region of the hind paw with a semiflexible tip connected to the anesthesiometer. Mechanical stimulation was terminated when the animal withdrew its paw, and the value of the applied force was recorded in grams. Mechanical paw withdrawal thresholds were obtained in duplicate for each paw and are reported as the mean of duplicate determinations from each animal, averaged across animals, for each group."}, "[3]": {"system": "joint pain induced by intra-articular monoiodoacetic acid", "conditions": "0.3 mg/kg p.o.; cited from earlier work"}, "human CB2 [4]": {"target": "T1, human CB2", "conditions": "at 20 nM; cited from earlier work"}, "mouse CB2 receptors": {"target": "T2, mouse CB2 receptors (Mus musculus, UniProt P47936)", "T2 construct": "expressed in transfected cells", "T2 sequence (P47936 whole entry)": "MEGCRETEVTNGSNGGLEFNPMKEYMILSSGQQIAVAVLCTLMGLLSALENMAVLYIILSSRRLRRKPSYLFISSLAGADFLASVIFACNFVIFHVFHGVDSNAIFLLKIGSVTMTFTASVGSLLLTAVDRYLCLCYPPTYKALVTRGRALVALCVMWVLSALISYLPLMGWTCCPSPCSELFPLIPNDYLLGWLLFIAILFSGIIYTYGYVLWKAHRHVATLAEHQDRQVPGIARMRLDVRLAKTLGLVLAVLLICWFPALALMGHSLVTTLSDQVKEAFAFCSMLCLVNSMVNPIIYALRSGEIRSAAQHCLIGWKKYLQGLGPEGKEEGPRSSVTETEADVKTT", "assay": "Phosphorylated ERK1/2 detection, HEK mCB2", "format": "cell-based", "conditions": "for Emax: read-out: pERK1/2 Emax"}, "[5]": {"conditions": "WT mice, 3 mg/kg per day i.p.×12 days after phase 1 morphine"}}, "note": "Where two headings read alike, the source gives them in different places.", "data": [{"compound": "Cc1nc(N2CCN(C)CC2)c2nc(-c3ccccc3Cl)n(C3CCOCC3)c2n1", "note": "[LY2828360, 8-(2-chlorophenyl)-2-methyl-6-(4-methylpiperazin-1-yl)-9-(tetrahydro-2H-pyran-4-yl)-9H-purine]", "values": [{"measurement": "ERK1/2 phosphorylation time course", "setting": "human CB2 [1]; hCB2, 1 pM", "value": "increased ERK1/2 phosphorylation after 30 minutes, but not at 5 minutes"}, {"measurement": "ERK1/2 phosphorylation after PTX treatment", "setting": "human CB2 [1]; hCB2, 1 pM, PTX", "value": "abolished ERK1/2 phosphorylation"}, {"measurement": "stimulated phosphorylation of ERK1/2 in presence of SR144528", "setting": "human CB2 [1]; hCB2, SR144528 (1 pM)", "value": "completely blocked"}, {"measurement": "Emax", "setting": "human CB2 [1]; human CB2, 05 mins incubation", "value": 22.1, "unit": "%"}, {"measurement": "Emax", "setting": "human CB2 [1]; human CB2, 30 mins incubation", "value": 32.3, "unit": "%"}, {"measurement": "time for responsiveness to mechanical stimulation to return to baseline", "setting": "[2]; 3 mg/kg i.p. acute", "value": 1, "unit": "days"}, {"measurement": "mechanical allodynia, chronic phase 1 treatment", "setting": "[2]; CB2KO mice", "value": "failed to suppress"}, {"measurement": "mechanical responsiveness, phase 2 treatment of morphine-tolerant mice", "setting": "[2]; CB2KO mice, 3 mg/kg per day i.p.×12 days after phase 1 morphine", "value": "did not alter responsiveness to mechanical or cold stimulation"}, {"measurement": "mechanical allodynia, coadministration with morphine", "setting": "[2]; CB2KO mice, LY2828360 0.1 mg/kg with morphine 10 mg/kg per day×12 days", "value": "sustained antiallodynic efficacy was absent"}, {"measurement": "development of tolerance to antiallodynic effect of phase 2 morphine, mechanical", "setting": "[2]; CB2KO mice, LY2828360 phase 1, morphine phase 2", "value": "did not block the development of morphine tolerance"}, {"measurement": "paclitaxel-induced mechanical allodynia, high dose", "setting": "[2]; WT mice, 3 mg/kg i.p. acute", "value": "fully reversed paclitaxel-induced allodynia and normalized responses to pre-paclitaxel baseline levels"}, {"measurement": "mechanical allodynia, chronic phase 1 treatment", "setting": "[2]; WT mice", "value": "markedly suppressed paclitaxel-induced mechanical and cold allodynia throughout the observation interval"}, {"measurement": "mechanical allodynia, phase 2 treatment of morphine-tolerant mice", "setting": "[2]; [5]", "value": "fully reversed paclitaxel-induced allodynia and normalized responsiveness to pre-paclitaxel baseline levels"}, {"measurement": "tolerance to phase 2 treatment, mechanical", "setting": "[2]; [5]", "value": "tolerance did not develop"}, {"measurement": "mechanical allodynia, coadministration with morphine", "setting": "[2]; WT mice, LY2828360 0.1 mg/kg per day i.p.×12 days with morphine 10 mg/kg per day×12 days", "value": "fully reversed paclitaxel-induced mechanical allodynia and normalized responses to pre-paclitaxel baseline levels throughout the observation period"}, {"measurement": "development of morphine tolerance under coadministration, mechanical", "setting": "[2]; WT mice, LY2828360 0.1 mg/kg with morphine 10 mg/kg per day×12 days", "value": "morphine tolerance failed to develop"}, {"measurement": "development of tolerance to antiallodynic effect of phase 2 morphine, mechanical", "setting": "[2]; WT mice, LY2828360 3 mg/kg per day×12 days phase 1, morphine 10 mg/kg×12 days phase 2", "value": "prevented the development of morphine tolerance"}, {"measurement": "paclitaxel-induced mechanical allodynia, acute dose response", "setting": "[2]; WT mice, acute systemic (i.p.), dose-dependent", "value": "suppressed"}, {"measurement": "mechanical allodynia at low doses vs cremophor-vehicle controls", "setting": "[2]; WT mice, doses lower than 0.3 mg/kg i.p.", "value": "neuropathic pain was prominent"}, {"measurement": "stability of antiallodynic efficacy (tolerance), mechanical", "setting": "[2]; WT mice, phase 1, 3 mg/kg per day i.p.×12 days", "value": "stable throughout phase 1 treatment"}, {"measurement": "efficacy compared with diclofenac", "setting": "[3]", "value": "equivalent efficacy"}, {"measurement": "reversal of pain, incapacitance testing", "setting": "[3]", "value": "dose-related reversal of pain"}, {"measurement": "maximal stimulation of CB2", "setting": "human CB2 [4]", "value": "approximately 87%"}, {"measurement": "ERK1/2 phosphorylation time course", "setting": "mouse CB2 receptors; mCB2, 1 μM", "value": "had no effect at 5- and 10-minute time points but increased ERK1/2 phosphorylation at 20, 30, and 40 minutes"}, {"measurement": "ERK1/2 phosphorylation after PTX treatment", "setting": "mouse CB2 receptors; mCB2, 1 μM, PTX", "value": "abolished the 20-minute phosphorylation of ERK1/2"}, {"measurement": "ERK1/2 phosphorylation, concentration response", "setting": "mouse CB2 receptors; mCB2, 5 minutes", "value": "failed to affect pERK1/2 levels"}, {"measurement": "ERK1/2 phosphorylation, concentration response", "setting": "mouse CB2 receptors; mCB2, 20 minutes", "value": "increased ERK1/2 phosphorylation"}, {"measurement": "effect on ERK1/2 phosphorylation in presence of SR144528", "setting": "mouse CB2 receptors; mCB2, 20 minutes, SR144528 1 μM", "value": "blocked"}, {"measurement": "Emax", "setting": "mouse CB2 receptors; mouse CB2, 05 mins incubation", "value": 4.1, "unit": "%"}, {"measurement": "EC50", "setting": "mouse CB2 receptors; mouse CB2, 20 mins incubation, read-out: pERK1/2 EC50", "value": 0.339, "unit": "µM"}, {"measurement": "Emax", "setting": "mouse CB2 receptors; mouse CB2, 20 mins incubation", "value": 43.6, "unit": "%"}]}]}
